The target in one assay is T1, Lipoxydase aus Sojabohne (Glycine max, UniProt P08170).
T1 construct: purchased Sigma, München
T1 sequence (P08170 1-839): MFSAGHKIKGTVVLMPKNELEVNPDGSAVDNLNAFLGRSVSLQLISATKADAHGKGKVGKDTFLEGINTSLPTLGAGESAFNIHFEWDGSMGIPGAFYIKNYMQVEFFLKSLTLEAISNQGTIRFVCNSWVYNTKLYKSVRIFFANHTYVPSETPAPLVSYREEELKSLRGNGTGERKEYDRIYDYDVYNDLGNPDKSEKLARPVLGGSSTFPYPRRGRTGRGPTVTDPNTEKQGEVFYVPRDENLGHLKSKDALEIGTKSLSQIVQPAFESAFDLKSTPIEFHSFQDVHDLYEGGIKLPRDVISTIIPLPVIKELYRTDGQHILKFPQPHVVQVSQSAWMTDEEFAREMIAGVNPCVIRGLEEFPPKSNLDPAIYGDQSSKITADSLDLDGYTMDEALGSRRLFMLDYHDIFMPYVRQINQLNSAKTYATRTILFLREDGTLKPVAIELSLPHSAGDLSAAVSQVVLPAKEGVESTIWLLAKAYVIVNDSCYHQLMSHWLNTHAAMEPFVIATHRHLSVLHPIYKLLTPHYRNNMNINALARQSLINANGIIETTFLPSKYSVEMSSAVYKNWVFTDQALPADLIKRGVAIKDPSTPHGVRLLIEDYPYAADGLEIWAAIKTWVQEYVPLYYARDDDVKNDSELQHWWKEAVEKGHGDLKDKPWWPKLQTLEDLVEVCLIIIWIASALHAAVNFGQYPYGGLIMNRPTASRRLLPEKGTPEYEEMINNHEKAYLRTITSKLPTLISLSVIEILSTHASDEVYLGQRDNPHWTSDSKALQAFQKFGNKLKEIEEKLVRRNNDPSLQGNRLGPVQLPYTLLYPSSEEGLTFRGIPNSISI
Kind of assay: Inhibition of LDL oxidation by lipoxydase (diene formation at A 234). As to conditions: 100 µg LDL-Protein, 500 U/ml Lipoxydase, 37° C, 0-10 µM Testsubstanz, diene formation over 3 h. The assay is classed as biochemical.

Assay [1] has as its system arteriosklerotischen Arterienwandgewebe. Kind of assay: Reduction of LDL catabolism in arteriosclerotic arterial wall tissue (131J-TDS-LDL incorporation). As to conditions: cholesterol-fed Kaninchen, 0.2 % Testsubstanz in diet for 10 Tage, 24 Stunden after LDL infusion, thorakale Aorta; mean ± SEM (range); control 65.7 ± 3.9. The assay is classed as in vivo. The text has this:
Beim arteriosklerotischen Kaninchen ist die Wirkung der neuen Phenolether direkt am arteriosklerotischen Plaque nachzuweisen. 131I-TDS-LDL, ein Radioiod-LDL, das von den Zellen nach oxydativer Modifikation aufgenommen wird, akkumuliert nach i.v. Gabe massiv im Plaquegewebe. Die neuen Phenolether hemmen signifikant und massiv den LDL-Katabolismus und damit die Cholesterinüberladung der Arterienwandzellen. Daraus resultiert langfristig die Hemmung des Wachstums der Läsionen (Tab. 4).
Jeweils 6 Kaninchen in der Kontrollgruppe und Bsp.l-Gruppe, bzw. 3 Kaninchen in der Probucol-Gruppe für 3 Monate mit 0.5 % Cholesterin-fettreicher Kaninchendiät gefüttert. Die Tiere der verschiedenen Gruppen haben S-Cholspiegel von 1028±99 (771-1358) - 1155±200 (655-1787) mg % am Ende der Fütterungsphase und- ein Körpergewicht von 3050-3680 g erreicht. Die Tiere erhalten dann für 10 Tage 0.2 % Testsubstanz in der fettreichen Diät und anschließend eine Infusion von ¹³¹J-Deoxysorbitol-LDL. Der Einbau von ¹³¹J-Deoxysorbitol in den Arterienwandzellen erfolgt ganz überwiegend in der arteriosklerotischen Läsion und ermöglicht die Quantifizierung des LDL-Umsatzes in den Zellen. 24 Stunden nach der Infusion des LDL werden die Tiere getötet und die thorakale Aorta präpariert. […]

Assay [2] has as its system P388D.1 murine Makrophagen. Kind of assay: Inhibition of LDL-oxidation-dependent cholesterol ester formation in P388 macrophages. The assay is classed as cell-based. The conditions noted are these: 10 µm test substance, 18 Stunden, control without LDL 0.44, control + LDL 1.81. Here is the method: (§1) Die neuen Phenolether wirken LDL-protektiv. Bei Inkubation des LDL it Redoxmetallen hemmen sie die Bildung von thiobarbitursäure-reaktiven Lipidperoxiden (Tab. 1), bei der Oxidation des LDL durch Lipoxydase wird eine selektive Hemmwirkung deutlich (Tab. 2). Unter Testbedingungen, die zu einem wirksamen LDL-Schutz führen, wird die Cholesterinesterbildung in kultivierten Makrophagen gehemmt (Tab. 3).
125 µg/ml LDL-Protein wurde in F 10-Medium +1 µM Cu⁺⁺ für 5 Stunden inkubiert, um LDL-Antioxidantien zu depletieren. Dann wurden P388D.1 murine Makrophagen (1 x 10⁶ Zellen/ml) in F 10-Medium + 10 % FCS für 18 Stunden mit diesem Ansatz weiter inkubiert. Unter diesen Versuchsbedingungen bleibt das Verhältnis freies Cholesterin (FC)/Protein konstant bei 0.2 µg/mg, während die Cholesterinester in Abhängigkeit von LDL im Medium in den P388D.1 Makrophagen ansteigen, hier ausgedrückt als Anstieg des Verhältnisses von Cholesterinester/freiem Cholesterin […]. Tabelle 4

A further assay concerns LDL. Kind of assay: Inhibition of Cu++-dependent LDL oxidation (TBARS formation). In kind it is biochemical. The conditions noted are these: 10 µM Testsubstanz, 125 µg/ml LDL-protein + 10 µM Cu++, 37° C. Here is the method: as §1
125 µg/ml LDL-protein + 10 µM Cu⁺⁺ wurden bei 37° C in 2 ml TN-Puffer (20 mM Tris ph 8, 150 mM NaCl) in An- und Abwesenheit von 10 µM Testsubstanz inkubiert. Die Bildung von LDL-Oxidationsprodukten wurde anhand thiobarbitursäurereaktiver Substanzen (TBARS) bei OD532 16 und 23 Stunden nach Beginn der Inkubation gemessen. Tabelle 2

The values below come from EP0579622B1, “NEW PHENOL ETHERS, PROCESS FOR PRODUCING THE SAME AND MEDICAMENTS CONTAINING THESE COMPOUNDS” (BOEHRINGER MANNHEIM GMBH, priority 1991, dated 1992).

Each structure is given as a SMILES string.

Method for Lipoxydase aus Sojabohne: (Tab. 2). […] Die Bildung von […] aus der Oxidation […] des LDL wird bei A 234 über 3 h verfolgt und ist im Kontrollansatz ca. 0.075/h. Die Inhibition der Dienbildung dient als Maß der Lipoxydaseaktivität am LDL-substrat.

Take `CC(C)(C)c1cc(OCCCOc2cc(C(C)(C)C)c(O)c(C(C)(C)C)c2)cc(C(C)(C)C)c1O` [Bsp. 1, 1,3-Bis-[4-hydroxy-3,5-di-tert.butyl-phenoxy]propan]: half-maximal inhibition on Lipoxydase aus Sojabohne (IC50) was put at 50 nM. The “Einbau von 131J-TDS-LDLnorm±SEM ng/(mm³xdt/2)” value in assay [1] was 35 ± 1,9 (7-63) ng/(mm³xdt/2). For the same compound, the “CE/FC” value in assay [2] was 0.48 µg/µg. The “TBARS (OD 532) %” value with LDL (16 Std., control 75) was 19%; in the assay on LDL (23 Std., control 100), 76%.
In the case of `CC(C)(Sc1cc(C(C)(C)C)c(O)c(C(C)(C)C)c1)Sc1cc(C(C)(C)C)c(O)c(C(C)(C)C)c1` [Probucol, 4,4'[Isopropylidendithio]-bis(2,6-di-tert.-butyl), reference compound], in assay [1], the “Einbau von 131J-TDS-LDLnorm±SEM ng/(mm³xdt/2)” value was 84 ± 7.5 (40-144) ng/(mm³xdt/2). The “CE/FC” value in assay [2] stood at 0.52 µg/µg. For the same compound, the “TBARS (OD 532) %” value in the assay with LDL (16 Std., control 75) is on record as 56%; with LDL (23 Std., control 100) it was 88%.
